What all share (format): physicochemical
Series [1] is described as follows: Crystallization behavior in 98 v/v % aqueous acetonitrile (XRPD). The settings on record: seeded experiments. Here is the method:
Form I crystals were added to 98 v/v % aqueous acetonitrile in a glass vessel. Next, 98 v/v % aqueous acetonitrile was added to make the mixture 40 v/w times relative to the Form I crystal. The mixture was stirred with Teflon-coated magnetic stirrer bar and heated to 80° C. with aluminum block. After the crystals were dissolved, the mixture was cooled to a determined temperature at the rate of 30° C. per hour. After a determined holding time, Form I crystals were added as seed crystals according to object of an experiment. Precipitates were sampled periodically and analyzed by XRPD.

Series [2] can be described thus: Stability under photo storage conditions. The settings on record: light (D65 lamp) of 1.2 million Lux hours at 25° C. From the text: (§1) The crystalline Forms I and II are very stable in many aspects. Both forms are stable under storage conditions. […] Both forms are also stable under physical stress. The XRD charts of both forms were not changed after compression experiments with a planar pestle (1000 kgf/cm^2).

Series [3] is described as follows: Transformation behavior in 97 v/v % aqueous acetonitrile (XRPD). The procedure:
Form X crystals and 97 v/v % aqueous acetonitrile were added to a glass vessel. The mixture was stirred with Teflon-coated magnetic stirrer bar at the temperature controlled with aluminum block. Solid component was sampled periodically and analyzed by XRPD to determine the crystal form.

A short description of series [4]: Stability under physical stress (compression with planar pestle, XRD). The note with it: 1000 kgf/cm^2.
Text: as §1

Series [5] in a line: Solubility in water (shaking 20 minutes, HPLC UV 210 nm). The settings on record: for solubility at 20 min: thermodynamic from solid; for Solubility in water: hydrochloride monohydrate. The procedure: Excess amount of the samples, Forms I and II, were suspended in water, and were equilibrated by shaking for 20 minutes at 25° C. or 37° C., respectively. The amounts of dissolved the compound were determined using a Waters alliance HPLC system 2695, detected by UV 210 nm.

The nature of series [6]: Solubility measurements of Forms I and II in aqueous acetonitrile (HPLC, equilibrium plateau). The settings on record: for solubility: aqueous acetonitrile; for Thermodynamic relationship between forms I and II crystals: based on solubility measurements in aqueous acetonitrile. Here is the method: Solubility of Forms I and II was measured at various temperatures between 5° C. and 45° C. in aqueous acetonitrile in which water concentration was from 0 to 10 v/v % respectively.
Solubility was measured according to the following procedure. Form I or II crystals and an aqueous acetonitrile were added to a glass vessel. The mixture was stirred with a Teflon-coated magnetic stirrer bar at a defined temperature controlled with aluminum block. The liquid phase was sampled periodically, and the concentration of the compound was measured with high performance liquid chromatography (HPLC). Solid material was also collected at the same time to identify the crystal form using XRPD. In analyzing the time course of the change in concentration, that plateau zone was identified as an equilibrium condition, and the mean value of these concentrations was defined as “solubility” under that condition.

Another series can be described thus: Hygroscopicity (DVS-1). The note with it: between 10% RH and 90% RH at 25° C.; for Hygroscopicity: hydrochloride monohydrate. The procedure:
The hygroscopicity of Forms I and II were investigated using a Surface measurement systems, DVS-1, between 10% RH and 90% RH at 25° C.

The nature of series [7]: Transformation behavior in 98 v/v % aqueous acetonitrile (seeded slurry, XRPD). The procedure:
Form I crystals and 40 v/w times volume of 98 v/v % aqueous acetonitrile were added to a glass vessel. The mixture was stirred with Teflon-coated magnetic stirrer bar and heated to 80° C. with aluminum block. After dissolved, solution was cooled to 5° C. at the rate of 30° C. per hour. To the slurry of Form X, 10 w/w % of Form I crystals were added as seed crystals at 5° C., then controlled to a certain temperature. Samples of solid material were analyzed by XRPD on a periodic basis.

Series [8] is described as follows: Stability under storage conditions (temperature/humidity). The settings on record: 11% RH at 40° C., 75% RH at 40° C., 11% RH at 60° C. and 75% RH at 60° C. after 2 weeks.
Text: as §1

Structures are written as SMILES. Counter-ions that a name gives are not always drawn. Like-named read-outs stand apart in the source and are kept apart here.

`O=C(N[C@H]1CN2CCC1CC2)c1cc2cccc(Cl)c2s1` [Form I, (R)-7-chloro-N-(quinuclidin-3-yl)benzo[b]thiophene-2-carboxamide hydrochloride monohydrate]: the “Relative stability of Form I versus Form X” value in [1], in series [3] and in series [7] was “more stable than Form X regardless of temperature” in each case. In series [2], the “Degradation products under photo storage conditions” value is given as “no degradation products”. In [4], the “XRD chart after compression” value is recorded as “not changed”. The solubility at 20 min was found to be 39 mg/mL in series [5] (25 °C) and 90 mg/mL in series [5] (37 °C). The solubility turned out to be 1 mg/mL in [6] (5 °C, organic solvent or mixture, thermodynamic from solid, water concentration 0 v/v %, 5 °C, read-out: Solubility); 2.4 mg/mL in series [6] (5 °C, organic solvent or mixture, thermodynamic from solid, water concentration 2 v/v %, 5 °C, read-out: Solubility); 12.8 mg/mL in [6] (5 °C, organic solvent or mixture, thermodynamic from solid, water concentration 6 v/v %, 5 °C, read-out: Solubility); 5.4 mg/mL in series [6] (12.5 °C, organic solvent or mixture, thermodynamic from solid, water concentration 3.5 v/v %, 12.5 °C, read-out: Solubility); 27.6 mg/mL in series [6] (12.5 °C, organic solvent or mixture, thermodynamic from solid, water concentration 8.5 v/v %, 12.5 °C, read-out: Solubility); 1.3 mg/mL in series [6] (25 °C, organic solvent or mixture, thermodynamic from solid, water concentration 0 v/v %, 25 °C, read-out: Solubility). In addition, the solubility is 4.1 mg/mL in [6] (25 °C, organic solvent or mixture, thermodynamic from solid, water concentration 2 v/v %, 25 °C, read-out: Solubility); 17.1 mg/mL in series [6] (25 °C, organic solvent or mixture, thermodynamic from solid, water concentration 6 v/v %, 25 °C, read-out: Solubility); 47.5 mg/mL in series [6] (25 °C, organic solvent or mixture, thermodynamic from solid, water concentration 10 v/v %, 25 °C, read-out: Solubility); 10 mg/mL in [6] (37.5 °C, organic solvent or mixture, thermodynamic from solid, water concentration 3.5 v/v %, 37.5 °C, read-out: Solubility); 44.4 mg/mL in [6] (37.5 °C, organic solvent or mixture, thermodynamic from solid, water concentration 8.5 v/v %, 37.5 °C, read-out: Solubility); 8.7 mg/mL in [6] (45 °C, organic solvent or mixture, thermodynamic from solid, water concentration 2 v/v %, 45 °C, read-out: Solubility). Besides, the solubility in series [6] (45 °C, organic solvent or mixture, thermodynamic from solid, water concentration 6 v/v %, 45 °C, read-out: Solubility) is 27.2 mg/mL; in series [6] (45 °C, organic solvent or mixture, thermodynamic from solid, water concentration 10 v/v %, 45 °C, read-out: Solubility), 71.6 mg/mL. In addition, the “Thermodynamic relationship between forms I and II crystals” value in series [6] is reported as “enantiotropy”. The Hygroscopicity entry in “Hygroscopicity (DVS-1)” was “no hygroscopicity”. For the same molecule, in series [8], the “Degradation products under storage conditions” value is reported as “No degradation products”.
For `O=C(N[C@H]1CN2CCC1CC2)c1cc2cccc(Cl)c2s1` [Form II, (R)-7-chloro-N-(quinuclidin-3-yl)benzo[b]thiophene-2-carboxamide hydrochloride monohydrate], the “Degradation products under photo storage conditions” value in series [2] is given as “no degradation products”. Besides, in series [4], the “XRD chart after compression” value was “not changed”. For the same molecule, the Solubility in water in series [5] (25° C.) was 30 mg/mL; in [5] (37° C.) it was 54 mg/mL. The solubility was 29.7 mg/mL in [6] (5 °C, organic solvent or mixture, thermodynamic from solid, water concentration 10 v/v %, 5 °C, read-out: Solubility); 2.6 in series [6] (water concentration 2 v/v %, 5 °C, hydrochloride monohydrate); 4.7 in [6] (water concentration 2 v/v %, 25 °C, hydrochloride monohydrate); 5.7 in series [6] (water concentration 3.5 v/v %, 12.5 °C, hydrochloride monohydrate); 11.2 in [6] (water concentration 6 v/v %, 5 °C, hydrochloride monohydrate); 16.7 in [6] (water concentration 6 v/v %, 25 °C, hydrochloride monohydrate). Also, the solubility was found to be 29.6 in [6] (water concentration 6 v/v %, 45 °C, hydrochloride monohydrate); 25.1 in [6] (water concentration 8.5 v/v %, 12.5 °C, hydrochloride monohydrate); 44.4 in [6] (water concentration 8.5 v/v %, 37.5 °C); 44.6 in series [6] (water concentration 10 v/v %, 25 °C, hydrochloride monohydrate); 74.5 in series [6] (water concentration 10 v/v %, 45 °C, hydrochloride monohydrate). Further, the “Thermodynamic relationship between forms I and II crystals” value in series [6] is listed as “enantiotropy”. In addition, the “Channel water absorbed and desorbed” value in the series “Hygroscopicity (DVS-1)” was “ca. 1 mol”. Besides, the “Water value increased and decreased by absorption and desorption” value in the series “Hygroscopicity (DVS-1)” was “approximately 4%”. The Hygroscopicity entry in the series “Hygroscopicity (DVS-1)” was “there was a hygroscopicity”. Also, the “Degradation products under storage conditions” value in series [8] is recorded as “No degradation products”.

The values are drawn from patent US9550767B2, “Crystalline form of (R)-7-chloro-N-(quinuclidin-3-yl)benzo[b]thiophene-2-carboxamide hydrochloride monohydrate” (Forum Pharmaceuticals, Inc., priority 2010, dated 2017).
